Here are results for twelve compounds from patent US10934274B2, “Quinoline derivatives as TAM RTK inhibitors” (Qurient Co., Ltd., priority 2015, dated 2021).

For one assay, the target named is T1, TYRO3 (Homo sapiens, UniProt Q06418).
T1 construct: purchased Life Technologies
T1 sequence (Q06418 41-890): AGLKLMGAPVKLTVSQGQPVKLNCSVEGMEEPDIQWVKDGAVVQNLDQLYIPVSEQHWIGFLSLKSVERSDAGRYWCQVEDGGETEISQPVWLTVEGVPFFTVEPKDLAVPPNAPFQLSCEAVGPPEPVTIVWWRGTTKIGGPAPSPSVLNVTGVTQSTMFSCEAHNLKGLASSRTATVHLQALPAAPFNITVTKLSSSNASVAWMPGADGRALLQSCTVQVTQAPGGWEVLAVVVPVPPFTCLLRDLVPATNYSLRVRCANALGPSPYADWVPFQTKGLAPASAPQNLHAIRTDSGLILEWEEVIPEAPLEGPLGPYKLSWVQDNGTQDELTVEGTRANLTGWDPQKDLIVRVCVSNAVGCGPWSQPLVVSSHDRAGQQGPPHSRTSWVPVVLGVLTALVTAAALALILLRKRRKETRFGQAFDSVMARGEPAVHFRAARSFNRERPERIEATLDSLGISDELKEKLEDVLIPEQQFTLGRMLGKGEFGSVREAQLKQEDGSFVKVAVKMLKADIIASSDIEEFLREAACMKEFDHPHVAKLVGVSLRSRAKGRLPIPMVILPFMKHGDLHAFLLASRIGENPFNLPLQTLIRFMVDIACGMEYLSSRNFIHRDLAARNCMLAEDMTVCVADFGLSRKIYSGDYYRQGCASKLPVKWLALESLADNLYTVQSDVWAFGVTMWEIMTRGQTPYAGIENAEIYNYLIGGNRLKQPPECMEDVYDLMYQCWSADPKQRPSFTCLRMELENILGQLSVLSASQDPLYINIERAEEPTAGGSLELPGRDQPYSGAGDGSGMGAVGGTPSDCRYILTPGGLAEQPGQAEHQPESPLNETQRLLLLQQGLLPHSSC
The assay is described as follows: LanthaScreen Eu kinase binding assay, TYRO3. As to conditions: Tracer 236.

The target of another assay is T2, Met (Homo sapiens, UniProt P08581).
T2 construct: purchased Life Technologies
In words: LanthaScreen Eu kinase binding assay, Met. As to conditions: Tracer 236, read-out: cMet kinase binding activity (Kd).

The test system of assay [1] is Axl phosphorylation in transiently transfected HEK293T cells. In words: Cellular Axl phosphorylation assay. It is filed as cell-based. As to conditions: Homo sapiens, HEK-293T; HEK293T cells transfected with Axl, 1 hour compound treatment, Phospho-Axl vs Total-Axl. Put shortly:
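HEK293T cells transiently transfected with Axl (empty pcDNA_DEST_40 vector as minimum control) were treated with compound in DMSO for 1 h, then lysed. Total and phospho-Axl in lysates were measured by Mesoscale electrochemiluminescence immunoassay. IC50 was taken relative to the DMSO vehicle and empty-vector controls.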

T2 sequence (P08581 25-1390): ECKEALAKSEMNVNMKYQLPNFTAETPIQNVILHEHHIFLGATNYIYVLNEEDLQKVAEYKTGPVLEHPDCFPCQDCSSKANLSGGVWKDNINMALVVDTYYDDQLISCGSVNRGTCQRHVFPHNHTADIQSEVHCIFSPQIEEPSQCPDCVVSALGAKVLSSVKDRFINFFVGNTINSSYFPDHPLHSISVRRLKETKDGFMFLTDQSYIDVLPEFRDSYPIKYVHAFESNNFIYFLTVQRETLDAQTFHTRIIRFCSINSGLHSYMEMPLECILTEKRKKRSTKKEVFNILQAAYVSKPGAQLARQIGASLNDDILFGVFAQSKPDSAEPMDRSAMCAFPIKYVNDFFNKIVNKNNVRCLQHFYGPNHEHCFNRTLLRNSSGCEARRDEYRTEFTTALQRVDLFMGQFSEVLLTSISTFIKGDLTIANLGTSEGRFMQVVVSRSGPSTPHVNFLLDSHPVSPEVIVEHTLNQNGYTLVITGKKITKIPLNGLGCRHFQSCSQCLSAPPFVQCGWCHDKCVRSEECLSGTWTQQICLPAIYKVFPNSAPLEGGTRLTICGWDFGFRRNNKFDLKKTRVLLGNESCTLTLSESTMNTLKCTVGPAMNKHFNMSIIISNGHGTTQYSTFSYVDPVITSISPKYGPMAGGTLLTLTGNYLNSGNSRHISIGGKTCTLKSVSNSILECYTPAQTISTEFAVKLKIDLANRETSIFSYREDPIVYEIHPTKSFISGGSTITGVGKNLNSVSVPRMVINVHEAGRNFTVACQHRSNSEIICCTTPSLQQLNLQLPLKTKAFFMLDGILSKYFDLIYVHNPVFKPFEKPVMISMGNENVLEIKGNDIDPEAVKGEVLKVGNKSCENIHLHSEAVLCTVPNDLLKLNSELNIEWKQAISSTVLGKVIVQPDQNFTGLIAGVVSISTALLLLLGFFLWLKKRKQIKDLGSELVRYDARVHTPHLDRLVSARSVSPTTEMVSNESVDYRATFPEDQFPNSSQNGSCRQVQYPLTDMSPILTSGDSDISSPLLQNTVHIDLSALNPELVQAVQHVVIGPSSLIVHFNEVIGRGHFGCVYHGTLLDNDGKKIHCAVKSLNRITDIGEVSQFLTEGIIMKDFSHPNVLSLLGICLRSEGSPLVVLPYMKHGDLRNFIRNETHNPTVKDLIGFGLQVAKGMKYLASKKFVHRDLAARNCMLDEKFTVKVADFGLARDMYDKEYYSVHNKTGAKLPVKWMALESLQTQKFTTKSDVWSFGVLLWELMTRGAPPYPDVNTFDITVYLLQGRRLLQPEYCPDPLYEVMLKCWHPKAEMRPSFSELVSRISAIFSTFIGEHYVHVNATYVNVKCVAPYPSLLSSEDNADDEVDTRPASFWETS

For the compound `CCOc1cn(-c2ccco2)nc1C(=O)Nc1ccc(Oc2ccnc3cc(OC)c(OC)cc23)cn1` [Compound 57], the Kd at TYRO3 and at Met was less than 100 nM throughout. In assay [1], the IC50 (in general, the midpoint of a concentration-inhibition curve) is less than 100 nM.
Consider `CCOc1cn(-c2ccn(C)c2)nc1C(=O)Nc1ccc(Oc2ccnc3cc(OC)c(OC)cc23)cn1` [Compound 56], for which the Kd at TYRO3 and at Met was less than 100 nM each time. In assay [1], this compound showed an IC50 of less than 100 nM.
Consider `CCC(C)Oc1cc2nccc(Oc3ccc(NC(=O)c4nn(-c5cccnc5)cc4OCC(F)(F)F)nc3)c2cc1OC` (stereo not drawn) [Compound 234], for which the Kd – broadly, a measure of binding affinity in units of concentration – on TYRO3 was less than 100 nM; on Met, 100 to 1000 nM. The same compound came in with a half-maximal inhibitory concentration (IC50) in assay [1] of less than 100 nM.
For `CCOc1cn(-c2cnccc2C(C)(O)CO)nc1C(=O)Nc1ccc(Oc2ccnc3cc(OC)c(OC)cc23)cc1F` (stereo not drawn) [Compound 227], the Kd at TYRO3 and at Met was less than 100 nM in each case. The same compound displayed an IC50 in assay [1] of less than 100 nM.
Consider `COc1cc2nccc(Oc3ccc(NC(=O)c4nn(-c5cnc(N)nc5)cc4OCC4CC4)nc3)c2cc1OC` [Compound 240], for which the Kd at TYRO3 and at Met was less than 100 nM throughout. In assay [1], the IC50 was less than 100 nM.
As to `CCOc1cn(CCOC(F)(F)F)nc1C(=O)Nc1ccc(Oc2ccnc3cc(OC)c(OC)cc23)cn1` [Compound 38], the Kd is 100 to 1000 nM on TYRO3 and less than 100 nM on Met. The compound further displayed an IC50 in assay [1] of less than 100 nM.
Take `COc1cc2nccc(Oc3ccc(NC(=O)c4nn(-c5cnc(Cl)cn5)cc4OCC(F)(F)F)nc3)c2cc1OC` [Compound 236]: the Kd on TYRO3 and at Met was less than 100 nM throughout. In addition, the IC50 in assay [1] was less than 100 nM.
In the case of `COc1cc2nccc(Oc3ccc(NC(=O)c4nn(-c5cnc(N)nc5)cc4OCC4CNC4)nc3)c2cc1OC` [Compound 265], the Kd on TYRO3 and at Met was not below 1000 nM in each case. The compound also showed an IC50 in assay [1] not below 1000 nM.
`COc1cc2nccc(Oc3ccc(NC(=O)c4nn(-c5cccnc5)cc4OCC4CC4)nc3)c2cc1OC(F)(F)F` [Compound 239]: the Kd at TYRO3 was less than 100 nM; at Met, 100 to 1000 nM. Further, the IC50 in assay [1] is less than 100 nM.
Regarding `CCOc1cn(CC(C)=O)nc1C(=O)Nc1ccc(Oc2ccnc3cc(OC)c(OC)cc23)cn1` [Compound 66], the Kd at TYRO3 and at Met was 100 to 1000 nM each time. Also, the IC50 in assay [1] was less than 100 nM.
For `CCOc1cn(-c2cc[nH]c2)nc1C(=O)Nc1ccc(Oc2ccnc3cc(OC)c(OC)cc23)cn1` [Compound 32], the Kd on TYRO3 is less than 100 nM; on Met it was 100 to 1000 nM. This compound showed an IC50 in assay [1] of less than 100 nM.
In the case of `COc1cc2nccc(Oc3ccc(NC(=O)c4nn(-c5ccc(F)cc5Oc5ccccc5)cc4OCC4CC4)nc3)c2cc1OC` [Compound 272], the Kd on TYRO3 and at Met was 100 to 1000 nM throughout. Moreover, the IC50 in assay [1] was less than 100 nM.
